Assay results: publication PMC5805526, “ZB716, a steroidal selective estrogen receptor degrader (SERD), is orally efficacious in blocking tumor growth in mouse xenograft models” (Oncotarget, 2018)
Several values for one entry are separate records, joined by “and”; a condition that tells them apart may be missing. Identical values can stand only once. Like-named read-outs stand apart in the source and are kept apart here.

Tests used:
[1] = design: method as in PMID 27529700; details: mice; cited from earlier work
[2] = Pharmacokinetic study in rats, single oral dose; format: in vivo, Sprague-Dawley rats; details: rat; for concentration at 1 h / concentration at 3 h / concentration at 6 h / concentration at 8 h / concentration at 24 h: oral, read-out: Rat plasma concentration of ZB716 after a single oral dose
Experimental: Female Sprague-Dawley rats, weighing between 350 and 400 g (Charles River Laboratories, Portage, MI) were used for the pharmacokinetic study on ZB716. Rats were given oral gavage containing 5% dimethyl sulfoxide (DMSO), 40% polyethylene glycol 400, 55% saline-dissolved ZB716, at doses ranging from 1 mg/kg to 20 mg/kg. After drug administration, blood samples were collected from the lateral tail vein of the rat at 1, 3, 6, 8, 24 h. Rat blood was collected with a capillary into 1.5 mL microcentrifuge tubes containing 0.01 mL of 10 % EDTA anticoagulant. Plasma was then separated from cell pellets by centrifugation in a refrigerated centrifuge at 4°C and transferred to a separate tube. Plasma samples were frozen at −80°C until analysis.
The plasma samples of 100 μL each were processed for analysis by a TSQ UPLC-MS/MS system. Aliquots of 10 μL of 0.5 ng/μl E-Tamoxifen-2C^13, N^15, 200 μL methanol, and 400 μl chloroform were added to the plasma in a 1.5 mL centrifuge tube in sequence. The sample was vortexed and stored at −20°C for 4 hours, followed by sonication in a Branson B3510MT Ultrasonic Cleaners for 30 min and centrifuged at 12000 RPM on a Heraeus Fresco 21 Refrigerated Micro Centrifuge from Thermo Fisher Scientific for 10 min. The supernatant was dried with a nitrogen gas flow and suspended in 100 μL methanol. Aliquots of 10 μL of the above processed samples were injected into a TSQ Vantage mass spectrometer connected with a heated electrospray ionization probe and a Dionex Ultimat 3000 UHPLC with a Hypersil gold column (50×2.1 mm). The probe setting and front mass spectrometer setting were controlled as follows: spray voltage 3200 voltage, auxiliary gas 10psi, vaporizer temperature 365°C, capillary temperature 300°C, sheath gas 30psi, S-lens RF amplitude 51 voltage. The flow gradient was started with initial 30% mobile phase A of water with 0.05% formic acid to 1 min, to 100% mobile phase B of acetonitrile with 0.05% formic acid at 8 min, and return to 30% mobile phase A at 13 min.

[3] = tested on: MCF-7 human breast cancer xenograft; assay: Efficacy in MCF-7 xenograft tumor model; format: in vivo, Nu/Nu mice; details: ZB716 at both 10 mg/kg and 30 mg/kg by oral gavage, three weeks
Experimental: Four to six weeks old female ovariectomized Nu/Nu mice were purchased from Charles River Laboratories (Wilmington, MA). MCF-7 cells were cultured and harvested in the exponential growth phase using a PBS/EDTA solution. The animals were injected bilaterally in the mammary fat pad (MFP) with 5×10^6 viable cells suspended in 50 μL sterile PBS mixed with 100 μL Matrigel (reduced factor; BD Biosciences, Bed- ford, MA). 17b-Estradiol pellets (0.72 mg, 60 day release; Innovative Research of America, Sarasota, FL) were implanted subcutaneously in the lateral area of the neck using a precision trochar (10 gages) at the time of cell injection. Tumors were allowed to form and at day 15 post cell injection mice. […] Tumor sizes were monitored and recorded every other day for three weeks of treatment duration.

ERα = target: T1, ERα (Homo sapiens, UniProt P03372); assay: ER downregulation in MCF-7 cells (Western blot); format: cell-based; details: treated for 4 hours, read-out: ERα IC50 (ER downregulation in MCF-7 cells)
T1 construct: MCF-7 cells were plated at a density of 200,000 cells/60mm dish; endogenous in cells; host or cells: MCF-7
T1 sequence (P03372 1-595): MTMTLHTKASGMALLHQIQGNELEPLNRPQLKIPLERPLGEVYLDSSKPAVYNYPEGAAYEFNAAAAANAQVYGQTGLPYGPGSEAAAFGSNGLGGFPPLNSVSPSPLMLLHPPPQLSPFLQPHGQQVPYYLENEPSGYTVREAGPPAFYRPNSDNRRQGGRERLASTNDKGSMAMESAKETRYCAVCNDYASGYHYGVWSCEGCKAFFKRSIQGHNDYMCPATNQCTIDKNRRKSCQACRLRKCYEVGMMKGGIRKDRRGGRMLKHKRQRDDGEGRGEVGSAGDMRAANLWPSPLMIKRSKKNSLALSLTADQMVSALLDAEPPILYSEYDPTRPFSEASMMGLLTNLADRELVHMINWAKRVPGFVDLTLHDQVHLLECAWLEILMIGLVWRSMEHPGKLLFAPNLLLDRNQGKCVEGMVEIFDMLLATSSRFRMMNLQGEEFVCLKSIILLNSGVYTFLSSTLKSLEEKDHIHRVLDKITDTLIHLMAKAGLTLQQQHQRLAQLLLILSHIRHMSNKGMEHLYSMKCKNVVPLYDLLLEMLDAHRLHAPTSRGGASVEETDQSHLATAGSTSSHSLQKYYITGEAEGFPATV
Experimental: MCF-7 cells were plated at a density of 200,000 cells/60mm dish. Media containing the same drug concentrations as the growth curve assay were added on the day following plating (day 0) and allowed to incubate for 5 days for Western blot. Media with the tested compound was changed every other day. Cells were lysed. Lysates were placed on a rotisserie at 4°C for 30 min and then spun at 4°C at 12,000 rcf for 10 min. Supernatants were assayed for protein content, snap-frozen, and stored at −80°C if not run immediately. 50 μg of protein was subjected to Western blot protocol. Membranes were blocked and then incubated with 1:200 dilution of ERα antibody at 4°C overnight followed by 1:10,000 dilution of secondary antibody for 1 hr at room temperature. They were then imaged on a LICOR infrared scanner.

[4] = tested on: MCF-7 breast cancer cells; assay: MCF-7 cell growth inhibition; format: cell-based; details: Homo sapiens, MCF7, 120 h; 5 days treatment, cell count vs DMSO
Experimental: At the end of treatment, surviving cells were counted and normalized to control cells that were treated with vehicle (DMSO) only. (B) IC50 values were obtained by deriving logarithmic curves from the %cell survival vs. treatment dose plot.

ERα LBD = target: T2, ERα LBD (Homo sapiens, UniProt P03372); assay: MARCoNI ERα-coregulator interaction peptide microarray; format: biochemical; details: 10 μM compound, 7 nM GST-tagged ERα LBD, vs apo
T2 construct: using 7 nM GST-tagged ERα LBD (Invitrogen); purchased Invitrogen
T2 sequence (P03372 311-547 limits assumed): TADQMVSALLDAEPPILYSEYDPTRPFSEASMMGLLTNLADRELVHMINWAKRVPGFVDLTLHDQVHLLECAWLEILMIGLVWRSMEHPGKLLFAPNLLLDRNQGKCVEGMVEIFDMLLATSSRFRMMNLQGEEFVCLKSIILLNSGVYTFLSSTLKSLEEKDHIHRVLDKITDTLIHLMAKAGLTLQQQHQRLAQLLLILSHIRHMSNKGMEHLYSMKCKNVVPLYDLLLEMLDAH
Experimental: The modulation of ERα-coregulator interaction by compound was analyzed using MARCoNI (Micro Array Assay for Real-time Coregulator Nuclear receptor Interaction) as described previously using 7 nM GST-tagged ERα LBD (Invitrogen).
Each condition is measured using 3 technical replicates (arrays). After incubation, unbound receptor is removed by washing, and a tiff image of each array is acquired using a CCD camera and receptor binding to each peptide on the array is quantified using dedicated software. For each condition, the three technical replicates are used to calculate mean and S.E.M. ERα binding as well as compound-induced log-fold modulation vs. control for each individual motif. Significance of the modulation is assessed using Student's t-Test.

[5] = female, Sprague-Dawley, plasma, 1 mg/kg
[6] = female, Sprague-Dawley, plasma, 5 mg/kg
[7] = female, Sprague-Dawley, plasma, 10 mg/kg
[8] = female, Sprague-Dawley, plasma, 20 mg/kg

## C[C@]12CC[C@@H]3c4ccc(B(O)O)cc4C[C@@H](CCCCCCCCC[S+]([O-])CCCC(F)(F)C(F)(F)F)[C@H]3[C@@H]1CC[C@@H]2O (stereo partly drawn) [ZB716]
[1]
  plasma peak concentration after single-dose oral gavage relative to same-dose fulvestrant s.c.: over 10 times
[2]; [5]
  concentration at 1 h: 14.8 ± 6.51 ng/mL
  concentration at 3 h: 9.23 ± 2.33 ng/mL
  concentration at 6 h: 4.7 ± 1.66 ng/mL
  concentration at 8 h: 4.42 ± 2.38 ng/mL
  concentration at 24 h: 1.36 ± 1.42 ng/mL
[2]; [6]
  concentration at 1 h: 46.5 ± 4.81 ng/mL
  concentration at 3 h: 23.4 ± 2.8 ng/mL
  concentration at 6 h: 15.9 ± 2.03 ng/mL
  concentration at 8 h: 11.4 ± 0.52 ng/mL
  concentration at 24 h: 9.37 ± 1.24 ng/mL
[2]; [7]
  concentration at 1 h: 218 ± 27.8 ng/mL
  concentration at 3 h: 93.6 ± 21.8 ng/mL
  concentration at 6 h: 62 ± 14.9 ng/mL
  concentration at 8 h: 60.7 ± 13.9 ng/mL
  concentration at 24 h: 33.1 ± 10.6 ng/mL
[2]; [8]
  concentration at 1 h: 1040 ± 153 ng/mL
  concentration at 3 h: 671 ± 125 ng/mL
  concentration at 6 h: 371 ± 111 ng/mL
  concentration at 8 h: 300 ± 118 ng/mL
  concentration at 24 h: 98.5 ± 36.1 ng/mL
[2]; female, Sprague-Dawley, plasma, all four oral doses (1, 5, 10, 20 mg/kg), read-out: time of peak concentration in rat plasma
  Tmax: 1 h
[2]; 20 mg/kg oral, 20 mg/kg
  peak plasma concentration: over 1000 ng/mL and > 1.6 μM
[3]
  tumor growth in MCF-7 xenograft: complete blockage of tumor growth
ERα
  DC50: 0.8 nM
[4]
  IC50: 3.2 nM
ERα LBD
  modulation of ERα interaction with coactivator motifs (NCOA family): strongly reduced
